Biological target: Melanin-concentrating hormone receptor 1 (Homo sapiens, UniProt Q99705)
Experiment: Binding affinity to MCH1 receptor

Chain of Melanin-concentrating hormone receptor 1 (Q99705 whole entry): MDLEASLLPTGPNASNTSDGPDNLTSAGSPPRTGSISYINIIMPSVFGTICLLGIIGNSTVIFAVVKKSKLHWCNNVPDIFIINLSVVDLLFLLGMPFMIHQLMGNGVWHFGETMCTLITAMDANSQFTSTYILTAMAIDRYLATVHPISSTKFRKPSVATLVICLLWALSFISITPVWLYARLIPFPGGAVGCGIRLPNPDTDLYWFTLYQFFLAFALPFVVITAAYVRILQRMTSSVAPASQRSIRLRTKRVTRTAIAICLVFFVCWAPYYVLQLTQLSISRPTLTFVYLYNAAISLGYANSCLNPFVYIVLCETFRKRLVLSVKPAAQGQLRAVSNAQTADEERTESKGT

| Ki [nM] | Structure (SMILES) |
| --- | --- |
| 1410 | Cc1ccc(CN2CCC(=Cc3ccc(C(=O)N[C@H](C)c4ccc(Br)cc4)cc3)CC2)c2ccccc12 |
| 3470 | C[C@@H](NC(=O)c1ccc(CC2CCN(Cc3ccc4c(c3)OCO4)CC2)cc1)c1ccccc1 |
| 266 | COc1cccc([C@@H](C)NC(=O)c2ccc(CC3CCN(Cc4ccc5c(c4)OCO5)CC3)cc2)c1 |
| 108 | C[C@@H](NC(=O)c1ccc(CC2CCN(Cc3ccc4c(c3)OCO4)CC2)cc1)c1ccc(Cl)cc1 |
| 795 | CC[C@@H](NC(=O)c1ccc(CC2CCN(Cc3ccc4c(c3)OC(F)(F)O4)CC2)cc1)c1ccc(I)cc1 |
| 30 | CC[C@@H](NC(=O)c1ccc(CC2CCN(Cc3ccc4cncnc4c3)CC2)cc1)c1ccc(I)cc1 |
| 5 | CC[C@@H](NC(=O)c1ccc(CC2CCN(Cc3ccc4cccnc4c3)CC2)cc1)c1ccc(I)cc1 |
| 15600 | C[C@@H](NC(=O)c1ccc(C=C2CCN(Cc3ccco3)CC2)cc1)c1ccc(Br)cc1 |
| 4680 | O=C(N[C@@H]1CCc2ccccc21)c1ccc(CC2CCN(Cc3ccc4c(c3)OCO4)CC2)cc1 |
| 2060 | COc1ccccc1[C@@H](C)NC(=O)c1ccc(CC2CCN(Cc3ccc4c(c3)OCO4)CC2)cc1 |
| 51 | C[C@@H](NC(=O)c1ccc(CC2CCN(Cc3ccc4c(c3)OCO4)CC2)cc1)c1ccc(I)cc1 |
| 1080 | Cc1ccc([C@@H](C)NC(=O)c2ccc(CC3CCN(Cc4ccc5c(c4)OCO5)CC3)cc2)cc1 |
| 312 | CC[C@@H](NC(=O)c1ccc(CC2CCN(Cc3ccc4ccccc4n3)CC2)cc1)c1ccc(I)cc1 |
| 2580 | C[C@@H](NC(=O)c1ccc(C=C2CCN(Cc3ccccc3)CC2)cc1)c1ccc(Br)cc1 |
| 11800 | C[C@@H](NC(=O)c1ccc(C=C2CCN(CC3CCCCC3)CC2)cc1)c1ccc(Br)cc1 |
| 4130 | CC(NC(=O)c1ccc(CC2CCN(Cc3ccc4c(c3)OCO4)CC2)cc1)c1ccccc1 (stereo not drawn) |
| 9330 | Cc1ccccc1CNC(=O)c1ccc(CC2CCN(Cc3ccc4c(c3)OCO4)CC2)cc1 |
| 191 | CCC[C@@H](NC(=O)c1ccc(CC2CCN(Cc3ccc4c(c3)OCO4)CC2)cc1)c1ccc(I)cc1 |
| 40 | CC[C@@H](NC(=O)c1ccc(CC2CCN(Cc3ccc4nccnc4c3)CC2)cc1)c1ccc(I)cc1 |
| 1950 | C[C@@H](NC(=O)c1ccc(CN2CCN(Cc3ccc4c(c3)OCO4)CC2)cc1)c1ccc(Br)cc1 |
| 4560 | CC1CN(Cc2ccc3c(c2)OCO3)CCN1Cc1ccc(C(=O)N[C@@H](C)c2ccc(Br)cc2)cc1 (stereo partly drawn) |
| 3570 | C[C@@H](NC(=O)c1ccc(CC2CCN(Cc3ccc4c(c3)OCO4)CC2)cc1)C1CCCCC1 |
| 5110 | C[C@@H](NC(=O)c1ccc(C=C2CCN(Cc3ccc(-c4ccccc4)cc3)CC2)cc1)c1ccc(Br)cc1 |
| 2330 | CC(c1ccc(C(=O)N[C@@H](C)c2ccc(Br)cc2)cc1)N1CCN(Cc2ccc3c(c2)OCO3)CC1 (stereo partly drawn) |
| 149 | COc1ccc(CN2CCC(=Cc3ccc(C(=O)N[C@H](C)c4ccc(Br)cc4)cc3)CC2)cc1 |
| 133 | O=C(Cc1ccc2c(c1)CCO2)c1ccc(CC2CCN(Cc3ccc4c(c3)OCO4)CC2)cc1 |
| 20 | CC[C@@H](NC(=O)c1ccc(CC2CCN(Cc3ccc4c(c3)OCO4)CC2)cc1)c1ccc(I)cc1 |
| 5640 | O=C(NCc1ccccc1)c1ccc(CC2CCN(Cc3ccc4c(c3)OCO4)CC2)cc1 |

— ChEMBL document CHEMBL1158402, “Homology modeling of MCH1 receptor and validation by docking/scoring and protein-aligned CoMFA” (Eur J Med Chem, 2009)
